Data published in US10160762B2, “6-alkyl dihydropyrazolopyrimidinone compounds as PDE2 inhibitors” (Merck Sharp & Dohme Corp., priority 2015, dated 2018).

Biological target: T1, human PDE2A1 (Homo sapiens, UniProt O00408)
T1 construct: GST; purchased BPS Bioscience (San Diego, Calif.) 60020; host or cells: insect cells
Test: IMAP FP PDE assay, human PDE2A1
Type: biochemical
Settings: Lab B; read-out: Human PDE2 Ki (nM) Lab B
In short: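 FP (IMAP) read after 60 min room-temperature reaction of insect-cell GST-human PDE2A1 with 50 nM FAM-cAMP plus 1000 nM cGMP (pH 7.2 Tris, Mg2+, DTT). Compounds titrated 3-fold over ten points. Apparent Ki derived assuming KM of 10,000 nM; enzyme at 20% substrate turnover.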

T1 sequence (O00408 1-920 isoform O00408-2): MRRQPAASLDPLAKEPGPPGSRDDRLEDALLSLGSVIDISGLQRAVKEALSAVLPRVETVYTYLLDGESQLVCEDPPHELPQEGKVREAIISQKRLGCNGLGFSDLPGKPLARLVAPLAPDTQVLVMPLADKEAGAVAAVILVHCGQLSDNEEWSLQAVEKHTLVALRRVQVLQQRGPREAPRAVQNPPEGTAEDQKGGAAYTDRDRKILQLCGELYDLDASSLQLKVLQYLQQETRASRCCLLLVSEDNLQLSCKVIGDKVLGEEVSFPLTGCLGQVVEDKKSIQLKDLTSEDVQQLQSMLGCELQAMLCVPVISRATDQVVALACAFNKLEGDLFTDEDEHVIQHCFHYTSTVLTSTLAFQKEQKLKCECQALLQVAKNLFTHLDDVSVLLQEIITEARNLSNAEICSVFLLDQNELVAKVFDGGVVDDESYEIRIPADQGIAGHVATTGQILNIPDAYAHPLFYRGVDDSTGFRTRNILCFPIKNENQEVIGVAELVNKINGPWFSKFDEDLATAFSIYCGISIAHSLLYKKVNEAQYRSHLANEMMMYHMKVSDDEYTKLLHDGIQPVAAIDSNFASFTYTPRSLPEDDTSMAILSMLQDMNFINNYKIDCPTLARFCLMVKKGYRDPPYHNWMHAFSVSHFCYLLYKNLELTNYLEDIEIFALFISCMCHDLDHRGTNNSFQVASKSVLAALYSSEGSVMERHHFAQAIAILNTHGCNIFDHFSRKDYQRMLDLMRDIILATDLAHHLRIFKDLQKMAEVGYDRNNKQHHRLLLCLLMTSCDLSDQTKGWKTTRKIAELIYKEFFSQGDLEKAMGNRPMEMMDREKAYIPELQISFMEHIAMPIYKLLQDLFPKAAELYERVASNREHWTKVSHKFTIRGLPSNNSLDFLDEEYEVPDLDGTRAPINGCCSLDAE

Compared with Cc1nc2c(c(CC(F)F)nn2C(C)c2ccc(C(F)(F)F)cc2)c(=O)[nH]1 (single isomer, unassigned) [Example 285], CC(c1ccc(C(F)(F)F)cc1)n1nc(CO)c2c(=O)[nH]c(C(F)F)nc21 (stereo not shown) [Example 284, 6-(Difluoromethyl)-3-(hydroxymethyl)-1-(1-(4-(trifluoromethyl)phenyl)ethyl)-1H-pyrazolo[3,4-d]pyrimidin-4(5H)-one] is 1.7-fold lower in Ki: 111 nM for the first, 64 nM for the second. The second binds more tightly here.

Going from Cc1nc2c(c(CC(F)F)nn2C(C)c2ccc(C(F)(F)F)cc2)c(=O)[nH]1 (single isomer, unassigned) [Example 286] to Cc1nc2c(c(C=O)nn2C(C)c2ccc(C(F)(F)F)cc2)c(=O)[nH]1 (stereo not shown) [Example 248, 6-Methyl-4-oxo-1-(1-(4-(trifluoromethyl)phenyl)ethyl)-4,5-dihydro-1H-pyrazolo[3,4-d]pyrimidine-3-carbaldehyde], the Ki rises from 2 nM to 66 nM (33-fold). The first binds more tightly here.

Going from COCc1nc2c(c(CO)nn2C(C)c2ccc(C(F)(F)F)cc2)c(=O)[nH]1 (single isomer, unassigned) [Example 293] to Cc1nc2c(c(/C=N\O)nn2C(C)c2ccc(C(F)(F)F)cc2)c(=O)[nH]1 (stereo not shown) [Example 251, (Z)-6-Methyl-4-oxo-1-(1-(4-(trifluoromethyl)phenyl)ethyl)-4,5-dihydro-1H-pyrazolo[3,4-d]pyrimidine-3-carbaldehyde oxime], the Ki rises from 3.5 nM to 7.2 nM (2.1-fold).

In the case of Cc1nc2c(c(CO)nn2C2(c3ccc(C(F)(F)F)cc3)CCC2)c(=O)[nH]1 [Example 78, 3-(Hydroxymethyl)-6-methyl-1-(1-(4-(trifluoromethyl)phenyl)cyclobutyl)-1H-pyrazolo[3,4-d]pyrimidin-4(5H)-one], the Ki is reported as 4.9 nM.
